Data published in ChEMBL document CHEMBL4837239, “Identification of Thieno[3,2-d]pyrimidine Derivatives as Dual Inhibitors of Focal Adhesion Kinase and FMS-like Tyrosine Kinase 3” (J Med Chem, 2021).
Activity calls are given as the source filed them. No cut-off for these calls is given here.

How the values were obtained:
[1] = test system: HCT-116; assay: Antiproliferative activity against human HCT-116 cells assessed as growth inhibition measured after 72 hrs by CellTiter-Glo assay; format: functional; conditions: Homo sapiens, HCT-116
[2] = Inhibition of FYK Y379 mutant phosphorylation in human MDA-MB-231 cells by in-cell western blot assay; format: cell-based
[3] = target: CYP2C9 (Homo sapiens, UniProt P11712); assay: Inhibition of CYP2C9 (unknown origin) at 10 uM relative to control; format: ADME
[4] = target: CYP3A4 (Homo sapiens, UniProt P08684); assay: Inhibition of CYP3A4 (unknown origin) at 10 uM relative to control; format: ADME
[5] = target: Tyrosine-protein kinase JAK3 (Homo sapiens, UniProt P52333); assay: Inhibition of JAK3 (unknown origin)
[6] = target: T1, Non-receptor tyrosine-protein kinase TYK2 (Homo sapiens, UniProt P29597); assay: Inhibition of TYK2 (unknown origin)
[7] = target: T2, Focal adhesion kinase 1 (Homo sapiens, UniProt Q05397); assay: Inhibition of FAK (unknown origin)
Target sequence in this assay (Q05397 whole entry): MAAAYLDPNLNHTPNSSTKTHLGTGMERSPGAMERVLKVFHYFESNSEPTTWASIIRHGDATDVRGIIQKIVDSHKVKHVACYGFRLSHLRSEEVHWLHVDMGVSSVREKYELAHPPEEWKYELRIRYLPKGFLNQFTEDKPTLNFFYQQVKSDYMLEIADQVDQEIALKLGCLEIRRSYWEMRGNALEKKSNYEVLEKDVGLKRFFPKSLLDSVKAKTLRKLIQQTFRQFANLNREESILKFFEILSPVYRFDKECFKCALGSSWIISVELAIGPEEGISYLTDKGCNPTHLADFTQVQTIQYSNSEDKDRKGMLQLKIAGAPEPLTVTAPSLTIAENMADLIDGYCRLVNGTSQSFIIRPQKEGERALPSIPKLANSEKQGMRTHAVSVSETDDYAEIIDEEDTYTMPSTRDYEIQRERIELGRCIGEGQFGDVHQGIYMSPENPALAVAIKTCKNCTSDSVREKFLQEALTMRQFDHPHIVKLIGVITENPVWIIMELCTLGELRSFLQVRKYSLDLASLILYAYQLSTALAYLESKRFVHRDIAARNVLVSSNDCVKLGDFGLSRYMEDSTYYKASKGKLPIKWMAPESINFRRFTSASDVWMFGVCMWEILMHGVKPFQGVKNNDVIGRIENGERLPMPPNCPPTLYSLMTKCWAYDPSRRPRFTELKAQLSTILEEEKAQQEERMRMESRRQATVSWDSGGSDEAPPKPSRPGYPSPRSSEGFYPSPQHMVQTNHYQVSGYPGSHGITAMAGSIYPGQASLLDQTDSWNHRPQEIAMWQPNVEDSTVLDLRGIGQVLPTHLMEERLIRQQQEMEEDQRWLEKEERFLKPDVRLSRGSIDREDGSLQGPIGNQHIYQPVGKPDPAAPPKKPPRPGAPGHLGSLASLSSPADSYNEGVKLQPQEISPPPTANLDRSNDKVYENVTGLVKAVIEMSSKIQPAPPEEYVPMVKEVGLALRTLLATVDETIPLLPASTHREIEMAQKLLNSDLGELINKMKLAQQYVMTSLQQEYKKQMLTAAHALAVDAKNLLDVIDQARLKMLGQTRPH

[8] = target: Proto-oncogene tyrosine-protein kinase Src (Homo sapiens, UniProt P12931); assay: Inhibition of Src (unknown origin)
[9] = target: Tyrosine-protein kinase JAK3 (Homo sapiens) (UniProt P52333); assay: Inhibition of JAK3 (unknown origin) at 0.1 uM
[10] = target: T1, Non-receptor tyrosine-protein kinase TYK2; assay: Inhibition of TYK2 (unknown origin) at 0.1 uM
[11] = target: Tyrosine-protein kinase Lck (Homo sapiens, UniProt P06239); assay: Inhibition of Lck (unknown origin) at 0.1 uM
[12] = target: Tyrosine-protein kinase JAK1 (Homo sapiens, UniProt P23458); assay: Inhibition of JAK1 (unknown origin) at 0.1 uM
[13] = target: Cyclin-dependent kinase 4 (Homo sapiens, UniProt P11802); assay: Inhibition of CDK4 (unknown origin) at 0.1 uM
[14] = test system: BaF3; assay: Antiproliferative activity against mouse Ba/F3 cells harbouring FLT3 D835Y mutant assessed as growth inhibition measured after 72 hrs by CellTiter-Glo assay; format: functional; conditions: Mus musculus, BaF3
[15] = test system: BaF3; assay: Antiproliferative activity against mouse Ba/F3 cells harbouring FLT3 ITD F691L mutant assessed as growth inhibition measured after 72 hrs by CellTiter-Glo assay; format: functional; conditions: Mus musculus, BaF3
[16] = test system: BaF3; assay: Antiproliferative activity against mouse Ba/F3 cells harbouring FLT3 ITD F691I mutant assessed as growth inhibition measured after 72 hrs by CellTiter-Glo assay; format: functional; conditions: Mus musculus, BaF3
[17] = test system: BaF3; assay: Antiproliferative activity against mouse Ba/F3 cells assessed as growth inhibition measured after 72 hrs by CellTiter-Glo assay; format: functional; conditions: Mus musculus, BaF3
[18] = target: T2, Focal adhesion kinase 1; assay: Inhibition of FAK autophosphorylation at Y576 in human HCT-116 cells at 5 uM incubated for 24 hrs by Western blot analysis; format: cell-based
Target sequence in this assay (Q05397 2-1052 limits assumed): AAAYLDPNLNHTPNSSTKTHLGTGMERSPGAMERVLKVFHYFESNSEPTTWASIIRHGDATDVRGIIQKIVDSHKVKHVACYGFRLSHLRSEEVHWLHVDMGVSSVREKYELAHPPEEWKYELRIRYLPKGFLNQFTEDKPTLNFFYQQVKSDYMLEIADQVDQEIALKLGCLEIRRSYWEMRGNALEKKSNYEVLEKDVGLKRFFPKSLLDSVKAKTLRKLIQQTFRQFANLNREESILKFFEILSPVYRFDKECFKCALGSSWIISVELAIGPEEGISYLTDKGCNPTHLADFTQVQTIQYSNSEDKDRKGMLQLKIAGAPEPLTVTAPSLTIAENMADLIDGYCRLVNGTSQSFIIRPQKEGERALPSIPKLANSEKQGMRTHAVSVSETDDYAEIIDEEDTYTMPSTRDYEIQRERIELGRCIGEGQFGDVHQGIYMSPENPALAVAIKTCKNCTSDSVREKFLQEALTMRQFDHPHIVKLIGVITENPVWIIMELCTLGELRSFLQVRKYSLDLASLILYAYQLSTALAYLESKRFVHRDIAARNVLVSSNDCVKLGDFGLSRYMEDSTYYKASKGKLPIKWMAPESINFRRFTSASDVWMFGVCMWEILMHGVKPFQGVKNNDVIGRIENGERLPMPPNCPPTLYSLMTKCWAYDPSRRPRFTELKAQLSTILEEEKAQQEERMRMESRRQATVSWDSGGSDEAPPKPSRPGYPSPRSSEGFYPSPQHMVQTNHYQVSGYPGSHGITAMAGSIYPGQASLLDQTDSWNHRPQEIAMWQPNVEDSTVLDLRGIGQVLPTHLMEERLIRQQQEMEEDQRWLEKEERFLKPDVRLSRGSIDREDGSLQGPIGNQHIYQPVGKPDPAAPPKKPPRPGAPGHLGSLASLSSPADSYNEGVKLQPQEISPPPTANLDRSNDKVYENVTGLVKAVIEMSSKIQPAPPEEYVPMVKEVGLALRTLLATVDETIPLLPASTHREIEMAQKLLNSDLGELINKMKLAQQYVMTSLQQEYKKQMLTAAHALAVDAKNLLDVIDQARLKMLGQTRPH

[19] = target: T2, Focal adhesion kinase 1; assay: Inhibition of FAK autophosphorylation at Y925 in human HCT-116 cells at 5 uM incubated for 24 hrs by Western blot analysis; format: cell-based
Target sequence in this assay (Q05397 2-1052 limits assumed): as above

[20] = target: T2, Focal adhesion kinase 1; assay: Inhibition of FAK in human HCT-116 cells assessed as inhibition of paxillin phosphorylation at 0.5 to 5 uM incubated for 24 hrs by Western blot analysis; format: cell-based; conditions: dose 0.5-5 µM
Target sequence in this assay (Q05397 2-1052 limits assumed): as above

[21] = target: T2, Focal adhesion kinase 1; assay: Inhibition of FAK in human HCT-116 cells assessed as inhibition of Pyk2 phosphorylation at 0.5 to 5 uM incubated for 24 hrs by Western blot analysis; format: cell-based; conditions: dose 0.5-5 µM
Target sequence in this assay (Q05397 2-1052 limits assumed): as above

[22] = test system: HCT-116; assay: Induction of apoptosis in human HCT-116 cells assessed as cleaved PARP at 0.1 to 10 uM incubated for 24 hrs by Western blot analysis; format: functional, cell-based; conditions: dose 0.1-10 µM
[23] = test system: MDA-MB-231; assay: Induction of apoptosis in human MDA-MB-231 cells assessed as cleaved PARP at 0.1 to 10 uM incubated for 24 hrs by Western blot analysis; format: functional, cell-based; conditions: dose 0.1-10 µM
[24] = test system: MDA-MB-231; assay: Growth inhibition of anchorage-Independent human MDA-MB-231 cells assessed as decrease in number of colonies incubated for 72 hrs by MTT assay; format: functional, cell-based; conditions: dose 1-10 µM
[25] = test system: HCT-116; assay: Growth inhibition of anchorage-Independent human HCT-116 cells assessed as decrease in number of colonies incubated for 72 hrs by MTT assay; format: functional, cell-based; conditions: dose 1-10 µM
[26] = test system: HCT-116; assay: Growth inhibition of anchorage-Independent human HCT-116 cells assessed as decrease in number of colonies at 1 uM incubated for 72 hrs by MTT assay relative to control; format: functional, cell-based
[27] = test system: MDA-MB-231; assay: In vivo antitumor activity against human MDA-MB-231 cells xenografted in Balb/c mouse assessed as tumor volume at 70 mg/kg, po once daily measured for 16 days (reference value: 600 mm^3); format: functional; conditions: time 16 day
[28] = test system: MDA-MB-231; assay: Antimigratory activity in human MDA-MB-231 cells assessed as suppression of migration at 1 uM measured after 12 hrs by scratch wound healing assay; format: functional
[29] = test system: HCT-116; assay: Antiinvasive activity in human HCT-116 cells assessed as suppression of invasion at 1 uM measured after 12 hrs by trans well experiment; format: functional
[30] = test system: MDA-MB-231; assay: Antiinvasive activity in human MDA-MB-231 cells assessed as suppression of invasion measured after 12 hrs by trans well experiment; format: functional; conditions: dose 0.5-1 µM, at 0.5 to 1 µM
[31] = test system: MDA-MB-231; assay: Antimetastatic activity against human MDA-MB-231 cells expressing firefly luciferase xenografted NSG orthotopic mouse model assessed as reduction in luminescence intensity at 40 to 70 mg/kg, po once daily measured for 2 weeks; format: functional, organism-based; conditions: dose 40-70 mg/kg
[32] = test system: MDA-MB-231; assay: Antimetastatic activity against human MDA-MB-231 cells expressing firefly luciferase xenografted NSG orthotopic mouse model assessed as reduction in tumor weight at 70 mg/kg, po once daily measured for 2 weeks; format: functional, organism-based
[33] = test system: BaF3; assay: Inhibition of FLT3-ITD/[…] mutant (unknown origin) expressed in mouse BaF3 cells assessed as decrease in autophosphorylation at 1 nM by Western blot analysis; format: cell-based; conditions: Homo sapiens
[34] = Toxicity in mouse xenografted with human MV4-11 cells assessed as change in body weight at 20 to 50 mg/kg, po; format: organism-based; conditions: in vivo, dose 20-50 mg/kg

T1 sequence (P29597 whole entry): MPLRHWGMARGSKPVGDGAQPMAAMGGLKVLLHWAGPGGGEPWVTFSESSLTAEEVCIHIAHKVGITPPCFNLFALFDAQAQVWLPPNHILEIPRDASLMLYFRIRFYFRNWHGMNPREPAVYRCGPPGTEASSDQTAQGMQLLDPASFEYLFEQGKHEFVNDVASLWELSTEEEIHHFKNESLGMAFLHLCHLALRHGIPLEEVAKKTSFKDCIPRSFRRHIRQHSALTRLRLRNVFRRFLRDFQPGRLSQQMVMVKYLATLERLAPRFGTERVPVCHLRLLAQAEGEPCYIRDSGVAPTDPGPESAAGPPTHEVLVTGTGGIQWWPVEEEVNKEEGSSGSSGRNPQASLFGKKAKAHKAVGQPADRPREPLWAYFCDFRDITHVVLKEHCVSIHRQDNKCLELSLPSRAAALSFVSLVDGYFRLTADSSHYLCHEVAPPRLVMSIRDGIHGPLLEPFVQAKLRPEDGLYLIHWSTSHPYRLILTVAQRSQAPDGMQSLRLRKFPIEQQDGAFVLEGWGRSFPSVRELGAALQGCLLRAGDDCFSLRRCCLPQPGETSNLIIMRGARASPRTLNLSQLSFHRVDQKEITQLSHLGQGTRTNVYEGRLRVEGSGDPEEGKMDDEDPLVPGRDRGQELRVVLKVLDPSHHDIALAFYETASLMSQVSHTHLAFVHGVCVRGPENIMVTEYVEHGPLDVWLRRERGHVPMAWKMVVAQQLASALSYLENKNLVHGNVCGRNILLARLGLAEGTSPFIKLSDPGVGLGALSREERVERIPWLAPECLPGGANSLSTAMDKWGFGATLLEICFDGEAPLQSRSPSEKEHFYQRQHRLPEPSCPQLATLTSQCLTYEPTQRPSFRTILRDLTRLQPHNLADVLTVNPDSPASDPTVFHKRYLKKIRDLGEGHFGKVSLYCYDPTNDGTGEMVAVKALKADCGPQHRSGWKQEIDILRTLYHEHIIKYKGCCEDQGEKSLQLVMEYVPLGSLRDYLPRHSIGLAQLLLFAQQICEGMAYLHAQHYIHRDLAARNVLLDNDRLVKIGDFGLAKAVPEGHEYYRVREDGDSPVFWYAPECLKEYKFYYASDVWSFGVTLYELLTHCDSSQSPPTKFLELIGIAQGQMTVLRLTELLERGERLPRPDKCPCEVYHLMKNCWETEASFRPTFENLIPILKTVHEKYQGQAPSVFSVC
CYP2C9, sequence (P11712 whole entry): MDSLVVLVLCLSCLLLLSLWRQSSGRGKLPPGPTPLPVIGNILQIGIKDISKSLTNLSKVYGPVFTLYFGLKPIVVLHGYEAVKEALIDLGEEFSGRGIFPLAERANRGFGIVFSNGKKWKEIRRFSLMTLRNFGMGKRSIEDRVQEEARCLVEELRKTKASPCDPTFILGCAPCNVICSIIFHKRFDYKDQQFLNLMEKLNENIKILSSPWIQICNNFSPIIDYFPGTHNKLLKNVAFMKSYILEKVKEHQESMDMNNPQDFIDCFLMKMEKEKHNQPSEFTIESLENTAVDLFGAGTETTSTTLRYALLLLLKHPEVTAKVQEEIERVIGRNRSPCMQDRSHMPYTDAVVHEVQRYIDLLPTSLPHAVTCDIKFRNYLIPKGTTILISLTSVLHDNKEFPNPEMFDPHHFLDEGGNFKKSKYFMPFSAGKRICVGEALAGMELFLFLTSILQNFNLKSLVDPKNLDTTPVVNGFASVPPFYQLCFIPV
Cyclin-dependent kinase 4, sequence (P11802 whole entry): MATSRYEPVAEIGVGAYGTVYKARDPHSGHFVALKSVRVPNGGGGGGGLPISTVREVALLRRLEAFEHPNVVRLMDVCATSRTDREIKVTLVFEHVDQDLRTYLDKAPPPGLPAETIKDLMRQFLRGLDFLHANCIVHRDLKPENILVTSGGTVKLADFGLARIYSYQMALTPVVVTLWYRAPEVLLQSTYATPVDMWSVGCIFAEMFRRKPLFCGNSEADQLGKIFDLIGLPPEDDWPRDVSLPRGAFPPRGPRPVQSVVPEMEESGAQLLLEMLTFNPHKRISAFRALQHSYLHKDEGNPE
CYP3A4, sequence (P08684 whole entry): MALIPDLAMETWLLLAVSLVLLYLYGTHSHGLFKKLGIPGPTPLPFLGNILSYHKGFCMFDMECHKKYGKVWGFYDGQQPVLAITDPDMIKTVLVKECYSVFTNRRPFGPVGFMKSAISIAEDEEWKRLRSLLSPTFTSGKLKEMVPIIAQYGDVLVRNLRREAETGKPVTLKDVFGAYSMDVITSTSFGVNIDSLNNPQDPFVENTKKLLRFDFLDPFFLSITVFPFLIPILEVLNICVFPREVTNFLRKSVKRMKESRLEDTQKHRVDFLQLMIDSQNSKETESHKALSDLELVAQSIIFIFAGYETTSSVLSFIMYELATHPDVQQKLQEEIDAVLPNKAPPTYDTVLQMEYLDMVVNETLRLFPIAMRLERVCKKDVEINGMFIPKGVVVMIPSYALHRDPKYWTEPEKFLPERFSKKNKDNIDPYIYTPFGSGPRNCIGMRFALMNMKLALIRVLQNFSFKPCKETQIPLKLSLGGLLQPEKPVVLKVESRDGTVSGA

GI50 [1]: 0.16 µM
IC50 [2]: 0.26 µM
inhibition at 10 µM [3]: 93.6%
inhibition at 10 µM [4]: 71.9%
IC50 [5]: 0.0032 µM
IC50 [6]: 0.0043 µM
IC50 [7]: 0.0097 µM
IC50 [8]: 0.0034 µM
inhibition [9]: 96.7%
inhibition [10]: 95.9%
inhibition [11]: 93.9%
inhibition [12]: 93.8%
inhibition [13]: 92.7%
GI50 [14]: 0.0004 µM
GI50 [15]: 0.0605 µM
GI50 [16]: 0.114 µM
GI50 [17]: 0.428 µM
inhibition [18]: Active
inhibition [19]: Active
inhibition [20]: Active
inhibition [21]: Active
Compound: CCN1CCN(c2ccc(Nc3ncc4scc(-c5cccc(NS(C)(=O)=O)c5)c4n3)cc2)CC1
Activity [22]: Active
Activity [23]: Active
growth inhibition (GI) [24]: Dose-Dependent Effect
growth inhibition (GI) [25]: Active
growth inhibition (GI) [26]: Active
Activity [27]: 300 mm3
inhibition at 1 µM [28]: 50%
inhibition at 1 µM [29]: 50%
inhibition (INH) [30]: 50%
Activity [31]: Active
Activity [32]: Active
inhibition [33]: Active
Activity [34]: Non-Toxic
